Tests used:
HEK293 cells = experiment: Rescue potential of CoA and 4′-phosphopantetheine in HOPAN assay; assay type: cell-based, mammalian; details: HOPAN 0.5 mM, 250 μM compound, 4 days
Procedure: Mammalian HEK293 cells treated with the chemical inhibitor HOPAN (hopanthenate, CAS 17097-76-6, IUPAC: calcium 4-[[(2R)-2,4-dihydroxy-3,3-dimethylbutanoyl]amino]butanoate). Cells treated with HOPAN show a reduction in intracellular CoA levels, which induces a decrease in cell viability.
Materials and Methods: HEK293 cells were cultured in vitamin B5 deficient DMEM (Thermo Scientific) supplemented with 10% dialysed FCS (Thermo Scientific) with and without HOPAN (0.5 mM) and CoA and 4′-phosphopantetheine for 4 days. 250 μM of CoA and 4′-phosphopantetheine was used for determination of rescue efficiency.

[1] = Translocation through cell membranes / uptake by cells; assay type: cell-based
[2] = Conversion of CoA into 4′-phosphopantetheine in human serum (HPLC)
[3] = 3 h, 10 μM
[4] = patients with moderate dyslipidemia; cited from earlier work
[5] = 400 U Coenzyme A/day for 3 weeks combined with statins, oral; cited from earlier work

stability in human serum ([2]; human serum over 6 hours incubation)	concentrations of 4′-phosphopantetheine generated from CoA in human serum ([2]; human serum, 37° C., 6 hours incubation of CoA, HPLC)	CoA degraded in human serum [3]	SMILES	rescue of HOPAN induced cell count defect (HEK293 cells; FIG. 2)	rescue of HOPAN induced cell count defect (HEK293 cells; FIG. 2, listed as 4PPT)	rescue of HOPAN induced decrease of intracellular CoA levels (HEK293 cells; FIG. 3)	rescue of HOPAN induced decrease of intracellular CoA levels (HEK293 cells; FIG. 3, listed as 4PPT)	translocation through cell membranes / uptake by cells [1]	plasma triglyceride levels [4]	toxicity [5]
stable	observed to increase	–	CC(C)(COP(=O)(O)O)[C@@H](O)C(=O)NCCC(=O)NCCS [4′-phosphopantetheine]	rescued the cell count defect	as potent as CoA	significantly rescued	as potent as CoA	able to effectively translocate through cell membranes	–	–
–	–	60%	CC(C)(COP(=O)(O)OP(=O)(O)OC[C@H]1O[C@@H](n2cnc3c(N)ncnc32)[C@H](O)[C@@H]1OP(=O)(O)O)[C@@H](O)C(=O)NCCC(=O)NCCS [CoA, Coenzyme A, reference compound]	rescued the cell count defect	–	significantly rescued	–	cells do not absorb CoA directly	effectively reduce plasma triglyceride levels	no toxicity was observed

Reference: patent US10624908B2, “Phosphopantetheine compounds alone or in combination with HMG-CoA reductase inhibitors for lowering serum cholesterol and serum triglicerides” (COMET THERAPEUTICS, INC., priority 2014, dated 2020)
